Test results from US9248134B1, “Fe(III) complex compounds for the treatment and prophylaxis of iron deficiency symptoms and iron deficiency anemias” (Vifor (International) AG, priority 2013, dated 2016).

System: Male NMRI (SPF) mice fed a low-iron diet
Assay: Iron utilization in mouse model (low-iron diet)
Format: in vivo
Conditions: stomach tube, 2 mg iron/kg body weight/day, days 1-5 and 8-12; utilization on day 15 calculated from hemoglobin increase and body weight increase
Experimental: The excellent Fe utilizations that can be accomplished through the Fe complexes according to the invention were measured by means of the following mouse model.
Male NMRI (SPF) mice (approximately 3 weeks old) were fed a low-iron diet (approx. 5 ppm iron) for approximately 3 weeks. The iron complexes were then administered to them by means of a stomach tube (2 mg iron/kg body weight/day) for 2 times 5 days, with an interruption of 2 days (days 1-5 and 8-12). 6 mice were the control group (negative control) and were administered with water instead. Utilization on day 15 was calculated from the hemoglobin increase and the body weight increase in accordance with the formula
[formula] • 0.07=Factor for 70 ml blood per kg body weight (BW) • 0.0034=Factor for 0.0034 g Fe/g Hb • Hb1=Hemoglobin level (g/l) on day 1 • Hb2(3)=Hemoglobin level (g/l) on day 8 (or 15) • BW4=body weight (g) on day 1 • BW9(14)=body weight (g) on day 8 (or 15) • Hb1 Control=average hemoglobin level (g/l) on day 1 in the control group, • Hb2(3) Control=average hemoglobin level (g/l) on day 8 (or 15) in the control group, • BW4 Control=average body weight (g) on day 1 in the control group, • BW9(14) Control=average body weight (g) on day 8 (or 15) in the control group, • Fe Dos.=entire administered iron (mg Fe) over 5 or 10 days, • Fe ut.=(Hb2(3)*BW9(14)−Hb1*BW4)*0.07*0.0034 (mg Fe) • Δ Utilization=Fe tot. utilized (examined group)−Fe ut. Control group, utilized from food, (mg Fe)

| Substance | Utilization n 15 d (abs. %) |
| --- | --- |
| Tris-(3-hydroxy-N-(2-methoxyethyl)isonicotinamide) iron(III) complex [Example 7] | 76 abs. % |
| Tris-(3-hydroxy-N,N-dimethylisonicotinamide) iron(III) complex [Example 1] | 68 abs. % |
| Tris-(N-butyl-3-hydroxyisonicotinamide) iron(III) complex [Example 6] | 76 abs. % |
